Source: patent publication US8975232B2, “Macrocyclic kinase inhibitors and uses thereof” (President and Fellows of Harvard College, priority 2010, dated 2015)
Read-outs that look alike come from different tables or passages of the source. Blank lines part the entries; values can stand above or below the molecule they belong to.

Tests used:
[1] = molecular target: T1, Src kinase (Homo sapiens, UniProt P12931); assay: In vitro selection of DNA-templated macrocycle library against GST-fused target; format: binding; details: one round of selection; DNA-linked library member
Text: (§1) Multiple representatives were chosen from each protein class so that we could compare selection results within protein families. In total, we performed a single round of in vitro selection against 36 protein targets. Additionally, we also performed a selection for binding to GST (with no fused target protein) immobilized on glutathione-linked resin. Although successive rounds of selection (with or without DNA amplification and translation between rounds) can multiply net enrichment factors,^29 we hypothesized that recent advances in ultra high-throughput DNA sequencing would enable even modest enrichment factors to be robustly detected, and the findings in this work are the result of a single round of selection on each protein target.
(§2) Following in vitro selection, DNA templates linked to target-binding macrocycles were amplified in PCR reactions using primers containing “barcode” sequences specific to each selection (FIG. 3). We also amplified DNA templates from eight aliquots of the unselected library to determine the initial abundance of each library member. A set of 12 five-base barcodes used in pairwise combinations provided sufficient encoding complexity for one round of selection against 36 protein targets, a control selection against immobilized GST, and eight pre-selection library samples (Table 3). These barcodes were designed to differ by at least three bases from one another so that common DNA sequencing errors would not preclude barcode assignment. After affinity selection and PCR amplification, barcoded samples were combined in equimolar amounts and submitted for ultra high-throughput DNA sequencing^46,47 as a single sample.
(§3) To rapidly identify the DNA-linked macrocycles that survived target affinity selection, we used Solexa (Illumina) DNA sequencing technology.^48 Because standard Solexa sequencing read lengths at the time of this experiment were shorter than the length of our barcoded library templates (84 base pairs), the paired-end sequencing method, which provides both forward and reverse sequencing reads for each template, was used. We created a PERL computer program to analyze the large amount of data emerging from high-throughput sequencing. First, forward and reverse sequence reads were merged to give complete template sequences (FIG. 4a). Each complete DNA sequence was converted into a combination of a barcode (selection identity) and three codons (building block identities). Template sequences were then binned by barcode to deconvolute the results of each selection. The abundance fraction of each library member was determined within each selection by counting the number of corresponding DNA sequence occurrences and dividing by the total number of interpretable sequence reads for that selection. Finally, enrichment factors for each library member were computed by dividing post-selection abundance fraction by pre-selection abundance fraction. In total, we received 25.6 million paired forward and reverse sequence reads from two Solexa sequencing runs. Of these, all four codons (which require five out of six correct bases per codon for the building blocks, and three out of three correct bases per codon for the scaffold^24) and the selection barcode (which requires four out of five correct bases) could be conclusively assigned for 12.4 million sequences. As a result, we obtained ˜200,000 sequence reads for each selection, and 1.7 million sequence reads of the pre-selection library.
(§4) In vitro selections of the 13,824-membered library were conducted exactly as described above for the positive control selections. For each selection, 5 pmol of library were used. PCR amplification of selection survivors was performed with 5′-barcoded forward and reverse primers. Barcoded PCR amplicons were quantitated using Picogreen dsDNA quantitation reagent (Invitrogen), mixed in equimolar amounts, and submitted for high-throughput DNA sequencing.

[2] = molecular target: ABL1 (Homo sapiens, UniProt P00519); assay: SelectScreen kinase profiling; format: biochemical
Description: (§5) Src IC50 determinations and single-point inhibition measurements were performed using Invitrogen's Z′-LYTE Tyr 02 assay kit according to the manufacturer's protocols. All kinase assays were performed at ATP concentrations near KM,ATP values, except where noted otherwise. Active human Src kinase was obtained from Millipore. For kinome profiling and IC50 determinations against non-Src kinases, compounds were submitted to Invitrogen's SelectScreen Kinase Profiling Service.

[3] = molecular target: T2, AURKA (Aurora A) (Homo sapiens, UniProt O14965); assay: SelectScreen kinase profiling; format: biochemical
T2 sequence (O14965 1-403): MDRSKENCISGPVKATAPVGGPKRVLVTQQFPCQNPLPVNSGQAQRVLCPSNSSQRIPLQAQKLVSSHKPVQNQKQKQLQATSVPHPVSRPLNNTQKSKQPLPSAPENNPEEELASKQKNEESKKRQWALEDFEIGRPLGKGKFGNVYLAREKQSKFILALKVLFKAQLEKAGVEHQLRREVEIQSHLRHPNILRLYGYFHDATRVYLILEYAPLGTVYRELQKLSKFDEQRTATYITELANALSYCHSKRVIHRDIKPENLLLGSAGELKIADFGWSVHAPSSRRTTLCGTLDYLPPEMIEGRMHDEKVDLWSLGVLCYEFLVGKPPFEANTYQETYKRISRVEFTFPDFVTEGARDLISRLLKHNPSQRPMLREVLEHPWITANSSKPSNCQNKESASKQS
Description: as §5

[4] = molecular target: T1, Src kinase; assay: Z'-LYTE kinase assay (Invitrogen), Src; format: biochemical; parameters: full-length kinase in the Z-LYTE assay vs. kinase domain in the current study; purchased Millipore
Description: Nine macrocycles enriched in the Src selection (FIG. 5) and synthesized as described above were assayed in vitro for the ability to inhibit Src kinase activity. Kinase activity was assayed in the presence of varying concentrations of macrocycle using the FRET-based Z′-LYTE assay (Invitrogen).
as §5

[5] = system: protein kinases; details: judged by similar criteria; cited from earlier work
[6] = system: panel of 58 commercially available human protein kinases; assay: Kinase selectivity panel, Invitrogen SelectScreen; format: biochemical
Description: Macrocycle cis-A11-B1-C5-D7 was assayed at 50 μM against a representative panel of 58 commercially available human protein kinases including all nine mammalian Src family kinases (Table 8).
as §5

[7] = molecular target: AURKB (Aurora B) (Homo sapiens, UniProt Q96GD4); assay: SelectScreen kinase profiling; format: biochemical
Description: as §5

[8] = molecular target: FGR (Homo sapiens, UniProt P09769); assay: SelectScreen kinase profiling; format: biochemical; details: Fgr; 10-point titration
Description: as §5

[9] = molecular target: FYN (Homo sapiens, UniProt P06241); assay: SelectScreen kinase profiling; format: biochemical
Description: as §5

[10] = molecular target: T3, HCK (Homo sapiens, UniProt P08631); assay: SelectScreen kinase profiling; format: biochemical
Description: as §5
Target sequence in this assay (P08631 whole entry): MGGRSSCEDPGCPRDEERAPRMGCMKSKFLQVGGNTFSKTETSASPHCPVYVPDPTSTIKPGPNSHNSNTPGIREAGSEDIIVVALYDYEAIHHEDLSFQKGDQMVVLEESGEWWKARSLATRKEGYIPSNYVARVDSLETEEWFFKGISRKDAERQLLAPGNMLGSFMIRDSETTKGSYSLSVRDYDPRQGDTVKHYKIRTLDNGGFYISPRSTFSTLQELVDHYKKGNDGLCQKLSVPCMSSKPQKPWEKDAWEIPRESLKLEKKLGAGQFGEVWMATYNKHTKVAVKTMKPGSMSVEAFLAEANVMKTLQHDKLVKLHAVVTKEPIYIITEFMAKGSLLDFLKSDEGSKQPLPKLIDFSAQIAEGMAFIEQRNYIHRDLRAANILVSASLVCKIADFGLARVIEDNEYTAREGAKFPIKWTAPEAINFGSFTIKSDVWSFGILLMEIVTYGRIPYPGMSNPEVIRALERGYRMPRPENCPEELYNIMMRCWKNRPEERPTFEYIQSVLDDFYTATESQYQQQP

[11] = molecular target: RET (Homo sapiens, UniProt P07949); assay: SelectScreen kinase profiling; format: biochemical; details: 10-point titration
Description: as §5

[12] = molecular target: T4, Abl (Homo sapiens, UniProt P00519); assay: Continuous spectrophotometric kinase activity assay; format: biochemical
T4 construct: human c-Abl (residues 229-512); made in house
T4 sequence (P00519 229-512): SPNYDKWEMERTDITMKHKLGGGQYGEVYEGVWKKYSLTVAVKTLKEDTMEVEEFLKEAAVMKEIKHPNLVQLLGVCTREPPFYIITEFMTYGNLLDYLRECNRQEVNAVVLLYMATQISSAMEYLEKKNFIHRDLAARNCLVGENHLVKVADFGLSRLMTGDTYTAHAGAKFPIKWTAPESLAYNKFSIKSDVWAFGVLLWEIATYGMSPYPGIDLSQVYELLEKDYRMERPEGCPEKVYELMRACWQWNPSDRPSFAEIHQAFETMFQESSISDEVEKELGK
Text: (§6) Kinase domain constructs of human c-Abl (residues 229-512), chicken c-Src (residues 251-533 and residues 83-533), murine Lck (residues 227-509), and human Hck (residues 166-445) were expressed as previously described (Seeliger, Young et al. 2005; Seeliger, Nagar et al. 2007; the entire contents of each of which are incorporated by reference herein). Mutations were introduced into chicken c-Src (residues 251-533) (T338I, C277Q, L297M) by site-directed mutagenesis and verified by DNA sequencing.
(§7) In vitro kinase inhibition assays were performed using either a continuous spectrophotometric assay or a FRET-based endpoint assay.
(§8) The original characterization of kinase inhibition was performed with a commercial kinase assay that relies on a fluorescently labeled peptide kinase substrate (Z-LYTE, Invitrogen). For further characterization, a continuous spectrophotometric kinase activity assay was employed that is easily adapted to different substrate peptides as well as a wider range of peptide and ATP concentrations.

[13] = molecular target: T5, Src kinase domain (chicken c-Src residues 251-533) (Gallus gallus, UniProt P00523); assay: as above; format: biochemical; details: for IC50: Src kinase domain
T5 construct: chicken c-Src (residues 251-533 and residues 83-533); made in house
Text: as §6, §7, §8

[14] = molecular target: T6, Lck (Mus musculus, UniProt P06240); assay: as above; format: biochemical, murine
T6 construct: murine Lck (residues 227-509); made in house
Text: as §6, §7, §8

[15] = molecular target: T7, Src kinase domain (Gallus gallus, UniProt P00523); assay: Fluorescence anisotropy binding assay; parameters: species or system chicken; details: fluorescein-labeled macrocycle, read-out: dissociation constant (KD)
T7 construct: chicken c-Src (residues 251-533 and residues 83-533); made in house
Description: The change in fluorescence anisotropy of fluorescein-labeled MC1, MC4 and MC9 at 518 nm upon excitation at 492 nm was monitored with a HORIBA Jobin Yvon FluoroMax-4 (Edison, N.J.) spectrofluorimeter. Kinase was titrated to 0.5 μM of the fluorescently labeled macrocycle in 100 mM Tris pH 8.0, 10 mM MgCl2 at 25° C. After equilibration, the increase in the fluorescence anisotropy of the fluorescently labeled ligand was recorded and fitted against a quadratic binding equation in Kaleidagraph (Synergy Software, Reading Pa.) to yield the dissociation constant KD.
To clarify the inhibitory mechanism of the compounds further, the binding affinity of fluorescently labeled MC1, MC4, and MC9 to Src kinase domain was determined in a fluorescence anisotropy assay (FIG. 21).

[16] = molecular target: T3, HCK; assay: Continuous spectrophotometric kinase activity assay; format: biochemical; parameters: Kinase domain constructs of human c-Abl (residues 229-512), chicken c-Src (residues 251-533 and residues 83-533), murine Lck (residues 227-509), and human Hck (residues 166-445); made in house
Text: as §6, §7, §8
Target sequence in this assay (P08631 262-515 limits assumed): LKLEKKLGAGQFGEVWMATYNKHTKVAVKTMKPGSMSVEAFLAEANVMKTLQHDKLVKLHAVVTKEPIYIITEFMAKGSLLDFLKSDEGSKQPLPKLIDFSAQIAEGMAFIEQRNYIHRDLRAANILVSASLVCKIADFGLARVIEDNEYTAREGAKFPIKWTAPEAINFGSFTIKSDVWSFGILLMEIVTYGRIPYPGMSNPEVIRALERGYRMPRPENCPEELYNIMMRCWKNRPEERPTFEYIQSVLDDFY

[17] = molecular target: MAPKAPK2 (Homo sapiens, UniProt P49137); assay: In vitro selection of DNA-templated macrocycle library against GST-fused target; format: binding; details: one round of selection; DNA-linked library member
Text: as §1, §2, §3, §4

[18] = molecular target: Pim1 (Homo sapiens, UniProt P11309); assay: as above; format: binding; details: one round of selection; DNA-linked library member
Text: as §1, §2, §3, §4

[19] = molecular target: BcLxL (1-209, Δ45-84, N-terminal GST-fused) (UniProt Q07817); assay: single round of affinity selection of the DNA-linked peptide on GST-Bcl-xL on glutathione beads; restriction digestion
[20] = 5 μM ATP, 100 μM Src optimal peptide
[21] = 5 μM ATP, 300 μM Src optimal peptide
[22] = 250 μM ATP, 300 μM Src optimal peptide

MAPKAPK2, sequence (P49137 whole entry, the tested form may be a part): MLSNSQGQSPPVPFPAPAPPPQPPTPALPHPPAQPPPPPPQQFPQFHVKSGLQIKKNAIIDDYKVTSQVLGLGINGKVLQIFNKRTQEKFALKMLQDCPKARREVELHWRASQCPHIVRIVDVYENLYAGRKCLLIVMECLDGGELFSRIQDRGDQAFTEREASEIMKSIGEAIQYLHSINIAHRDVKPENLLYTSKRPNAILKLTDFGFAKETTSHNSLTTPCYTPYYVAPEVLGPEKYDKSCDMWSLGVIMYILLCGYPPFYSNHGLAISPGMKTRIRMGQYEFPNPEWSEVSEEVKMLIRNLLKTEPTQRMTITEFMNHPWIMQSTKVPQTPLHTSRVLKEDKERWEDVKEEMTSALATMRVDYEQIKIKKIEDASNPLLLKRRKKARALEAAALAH
T1 sequence (P12931 whole entry, the tested form may be a part): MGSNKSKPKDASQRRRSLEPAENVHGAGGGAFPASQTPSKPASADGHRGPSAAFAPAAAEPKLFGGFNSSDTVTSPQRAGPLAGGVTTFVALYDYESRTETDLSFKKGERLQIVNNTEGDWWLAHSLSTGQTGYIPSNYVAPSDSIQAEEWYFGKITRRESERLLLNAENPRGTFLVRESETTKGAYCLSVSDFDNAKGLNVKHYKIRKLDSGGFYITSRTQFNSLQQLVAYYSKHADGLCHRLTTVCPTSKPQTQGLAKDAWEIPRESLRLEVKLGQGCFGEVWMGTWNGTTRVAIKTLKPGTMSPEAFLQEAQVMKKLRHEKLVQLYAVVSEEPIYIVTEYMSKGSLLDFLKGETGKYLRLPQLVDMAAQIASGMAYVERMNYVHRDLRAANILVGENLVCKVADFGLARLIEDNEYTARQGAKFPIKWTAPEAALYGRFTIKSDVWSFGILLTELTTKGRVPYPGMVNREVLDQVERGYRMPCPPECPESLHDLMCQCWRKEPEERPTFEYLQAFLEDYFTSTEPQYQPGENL
T6 sequence (P06240 227-509): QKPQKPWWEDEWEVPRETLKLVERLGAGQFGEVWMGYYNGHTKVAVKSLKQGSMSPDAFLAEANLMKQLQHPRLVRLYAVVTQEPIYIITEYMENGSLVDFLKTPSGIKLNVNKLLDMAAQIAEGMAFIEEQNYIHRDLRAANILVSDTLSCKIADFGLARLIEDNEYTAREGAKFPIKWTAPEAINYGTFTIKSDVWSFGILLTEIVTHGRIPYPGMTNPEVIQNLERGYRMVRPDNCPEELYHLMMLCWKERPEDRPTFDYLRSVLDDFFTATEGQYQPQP
Pim1, sequence (P11309 whole entry): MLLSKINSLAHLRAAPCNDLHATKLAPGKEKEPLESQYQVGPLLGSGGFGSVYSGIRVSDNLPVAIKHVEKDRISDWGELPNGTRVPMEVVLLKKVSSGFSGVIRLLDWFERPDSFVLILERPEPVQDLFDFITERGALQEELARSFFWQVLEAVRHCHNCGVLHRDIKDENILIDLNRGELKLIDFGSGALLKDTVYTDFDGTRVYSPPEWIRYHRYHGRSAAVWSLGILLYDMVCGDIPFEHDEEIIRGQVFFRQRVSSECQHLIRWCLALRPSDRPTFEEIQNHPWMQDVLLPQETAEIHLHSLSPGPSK
ABL1, sequence (P00519 whole entry): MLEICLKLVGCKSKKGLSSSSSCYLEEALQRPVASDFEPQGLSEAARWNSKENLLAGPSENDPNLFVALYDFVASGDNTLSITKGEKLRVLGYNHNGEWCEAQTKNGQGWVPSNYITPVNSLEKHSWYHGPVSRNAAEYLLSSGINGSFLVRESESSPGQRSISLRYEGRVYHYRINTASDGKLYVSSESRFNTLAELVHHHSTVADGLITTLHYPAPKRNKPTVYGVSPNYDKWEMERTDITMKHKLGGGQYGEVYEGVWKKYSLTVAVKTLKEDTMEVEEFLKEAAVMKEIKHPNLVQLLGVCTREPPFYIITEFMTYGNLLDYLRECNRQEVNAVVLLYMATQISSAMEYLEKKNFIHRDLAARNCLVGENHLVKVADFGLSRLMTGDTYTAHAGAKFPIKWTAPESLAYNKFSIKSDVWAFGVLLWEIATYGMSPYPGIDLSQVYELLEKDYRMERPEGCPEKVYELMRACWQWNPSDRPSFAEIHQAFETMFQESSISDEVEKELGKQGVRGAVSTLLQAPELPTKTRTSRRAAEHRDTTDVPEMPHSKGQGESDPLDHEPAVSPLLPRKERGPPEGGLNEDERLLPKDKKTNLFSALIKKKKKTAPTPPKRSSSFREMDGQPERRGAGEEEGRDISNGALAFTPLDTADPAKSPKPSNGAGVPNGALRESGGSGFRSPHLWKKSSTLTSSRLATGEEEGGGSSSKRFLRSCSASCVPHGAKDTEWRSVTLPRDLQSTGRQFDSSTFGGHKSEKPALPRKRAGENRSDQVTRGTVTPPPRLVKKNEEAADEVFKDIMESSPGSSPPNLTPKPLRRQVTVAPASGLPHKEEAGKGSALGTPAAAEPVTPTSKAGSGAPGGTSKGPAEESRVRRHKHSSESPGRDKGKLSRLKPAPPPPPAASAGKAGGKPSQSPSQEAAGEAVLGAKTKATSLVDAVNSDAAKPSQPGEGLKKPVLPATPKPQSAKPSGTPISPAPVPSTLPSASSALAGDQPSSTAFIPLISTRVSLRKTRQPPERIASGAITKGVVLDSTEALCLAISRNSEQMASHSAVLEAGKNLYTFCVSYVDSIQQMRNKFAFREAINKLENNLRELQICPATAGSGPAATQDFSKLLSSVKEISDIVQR
FGR, sequence (P09769 whole entry): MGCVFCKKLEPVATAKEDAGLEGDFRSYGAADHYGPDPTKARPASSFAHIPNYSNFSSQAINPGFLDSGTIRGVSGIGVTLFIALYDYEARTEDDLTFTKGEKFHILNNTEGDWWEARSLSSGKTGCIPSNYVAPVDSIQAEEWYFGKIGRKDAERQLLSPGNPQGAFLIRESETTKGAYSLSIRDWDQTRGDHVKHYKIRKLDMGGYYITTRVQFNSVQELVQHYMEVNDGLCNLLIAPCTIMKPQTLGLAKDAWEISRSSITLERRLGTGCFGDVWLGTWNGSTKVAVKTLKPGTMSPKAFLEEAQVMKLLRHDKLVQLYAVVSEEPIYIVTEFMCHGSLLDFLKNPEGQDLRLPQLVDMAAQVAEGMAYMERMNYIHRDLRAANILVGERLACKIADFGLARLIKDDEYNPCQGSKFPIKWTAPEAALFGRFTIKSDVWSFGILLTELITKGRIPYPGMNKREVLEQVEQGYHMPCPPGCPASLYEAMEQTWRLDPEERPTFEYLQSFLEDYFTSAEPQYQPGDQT
BcLxL (1-209, Δ45-84, N-terminal GST-fused), sequence (Q07817 other isoform, or with tags, fused parts or gaps mutant): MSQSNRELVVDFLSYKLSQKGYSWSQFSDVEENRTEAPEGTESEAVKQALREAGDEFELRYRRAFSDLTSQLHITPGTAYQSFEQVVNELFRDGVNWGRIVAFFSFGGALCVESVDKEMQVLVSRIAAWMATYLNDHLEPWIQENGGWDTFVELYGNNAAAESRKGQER
AURKB (Aurora B), sequence (Q96GD4 whole entry): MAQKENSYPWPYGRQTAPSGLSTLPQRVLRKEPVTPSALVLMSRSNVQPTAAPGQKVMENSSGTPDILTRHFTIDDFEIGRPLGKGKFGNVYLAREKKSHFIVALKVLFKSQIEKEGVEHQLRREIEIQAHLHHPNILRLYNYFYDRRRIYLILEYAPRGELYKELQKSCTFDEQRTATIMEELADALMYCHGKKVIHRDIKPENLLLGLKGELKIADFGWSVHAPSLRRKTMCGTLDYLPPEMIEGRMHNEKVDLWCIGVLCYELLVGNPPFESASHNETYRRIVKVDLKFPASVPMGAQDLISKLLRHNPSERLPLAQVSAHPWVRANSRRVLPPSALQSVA

enrichment factor after selection against Src kinase [1]: 62 fold
selectivity for Src over Abl kinase [2]: > 50 fold
selectivity for Aurora A among the Aurora family [3]: > 100 fold
difference in potency between cis and trans stereoisomers (Src) [4]: ~10 fold
Molecule: NC(=O)[C@@H]1CCNC(=O)[C@H](CCCNC(=O)c2cnccn2)NC(=O)[C@H](Cc2ccco2)NC(=O)[C@H](CC2CC2)NC(=O)C=CC(=O)N1 [Macrocycle A11-B1-C5-D7]

Molecule: CN[C@@H]1C[C@H]2O[C@@](C)([C@@H]1OC)n1c3ccccc3c3c4c(c5c6ccccc6n2c5c31)C(=O)NC4 [staurosporine]
selectivity score [5]: 0.50

Molecule: NC(=O)[C@@H]1CCNC(=O)[C@H](CCCNC(=O)c2cnccn2)NC(=O)[C@H](Cc2ccco2)NC(=O)[C@H](CC2CC2)NC(=O)/C=C\C(=O)N1 [cis-A11-B1-C5-D7]
selectivity for Src over all remaining Src-family kinases with the exception of Fgr [6]: > 10 fold
selectivity score ([6]; fraction of non-target kinases with IC50 within 10-fold of Src IC50 (960 nM)): 0.05
selectivity for Src over Abl kinase [2]: > 50 fold
IC50 ([3]; Aurora A, 10-point titration): 1.7 µM
selectivity for Aurora A over Aurora B [7]: > 50 fold
IC50 [8]: 4 µM
selectivity for Src over Fyn [9]: > 50 fold
selectivity for Src over Hck [10]: > 50 fold
IC50 [11]: 5.7 µM
IC50 [12, 20]: > 100 µM
IC50 [12, 21]: > 100 µM
IC50 [12, 22]: > 100 µM
IC50 [13, 20]: 16 µM
IC50 [13, 21]: 26 µM
IC50 [13, 22]: 89 µM
increase in IC50 upon increasing substrate peptide 3-fold to 300 μM ([13]; Src optimal substrate peptide 100 to 300 μM): 50%
IC50 [14, 20]: > 100 µM
IC50 [14, 21]: > 100 µM
IC50 [14, 22]: > 100 µM
Kd ([15]; 250 μM AMP-PNP): 3.3 µM
Kd ([15]; no competitor): 2.1 µM
IC50 ([4]; Z'-LYTE, ATP near KM): 0.96 µM
mode of Src inhibition ([4]; apparent KM for ATP versus macrocycle concentration): ATP-competitive
IC50 [16, 20]: > 100 µM
IC50 [16, 21]: > 100 µM
IC50 [16, 22]: > 100 µM

Molecule: NC(=O)[C@@H]1CCNC(=O)C=CC(=O)N[C@@H](C/C=C/c2ccccc2)C(=O)N[C@@H](CC2CCCCC2)C(=O)N[C@H](Cc2ccc(C(=O)c3ccccc3)cc2)C(=O)N1 [A12-B8-C10-D3]
enrichment upon selection for binding MAPKAPK2 [17]: 3 fold
enrichment upon selection for binding Pim1 [18]: 3.5 fold

Enrichment Factor [19]: 200
Molecule: Bak peptide (DNA-linked)

Molecule: NC(=O)[C@@H]1CNC(=O)C=CC(=O)N[C@@H](C/C=C/c2ccccc2)C(=O)N[C@@H](CC2CCCCC2)C(=O)N[C@H](Cc2ccc(C(=O)c3ccccc3)cc2)C(=O)N1 [A12-B8-C10-D4]
enrichment upon selection for binding MAPKAPK2 [17]: 3 fold
enrichment upon selection for binding Pim1 [18]: 10 fold

Molecule: NC(=O)[C@@H]1CNC(=O)[C@@H](Cc2ccc(C(=O)c3ccccc3)cc2)NC(=O)[C@H](CC2CCCCC2)NC(=O)[C@H](C/C=C/c2ccccc2)NC(=O)C=CC(=O)N1 [A12-B8-C10-D8]
enrichment upon selection for binding MAPKAPK2 [17]: 2.5 fold
enrichment upon selection for binding Pim1 [18]: 6 fold
